According to patent publication US12692261B2, “Substituted heterocyclic compounds and therapeutic uses thereof” (Bayer Aktiengesellschaft, priority 2020, dated 2026):

Columns and labels:
[1] = molecular target: T1, full-length human CSNK1A1 (Homo sapiens, UniProt P48729); assay: CSNK1A1 High ATP Assay (ADP-Glo, 1 mM ATP); type: biochemical; conditions: Table 3, read-out: CSNK1A1 high ATP assay IC50 [mol/l] (median);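 also: 30 min kinase reaction at 22 °C with 100 µM peptide substrate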
T1 construct: N-terminal Glutathion-S-Transferase (GST) and full-length human CSNK1A1; purchased Life Technologies PV4174; host or cells: baculovirus infected insect cells
Method in brief: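 GST-tagged full-length human CSNK1A1 from baculovirus-infected insect cells (typically about 0.4 ng/μL), pre-incubated with compound 15 min at 22 °C. Reaction with biotinylated peptide biotin-Ahx-KRRRAL-pS-VASLPGL at 1 mM ATP. ADP formed read by ADP-Glo luminescence.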

[2] = molecular target: T2, full-length human CSNK1D (Homo sapiens, UniProt P48730); assay: CSNK1D Assay (ADP-Glo, 1 μM ATP); type: biochemical; conditions: Table 3, read-out: CSNK1D IC50 [mol/l] (median)
T2 construct: N-terminal Glutathion-S-Transferase (GST) and full-length human CSNK1D; purchased Life Technologies PV3665; host or cells: baculovirus infected insect cells
Method in brief: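 Enzyme is N-terminal GST-tagged full-length human CSNK1D from baculovirus-infected insect cells (typically about 0.5 ng/μL), with a biotinylated peptide substrate and 1 μM ATP. Compound pre-incubated 15 min at 22° C in HEPES pH 7.5 buffer; ADP formed is read by ADP-Glo luminescence.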

T2 sequence (P48730 whole entry): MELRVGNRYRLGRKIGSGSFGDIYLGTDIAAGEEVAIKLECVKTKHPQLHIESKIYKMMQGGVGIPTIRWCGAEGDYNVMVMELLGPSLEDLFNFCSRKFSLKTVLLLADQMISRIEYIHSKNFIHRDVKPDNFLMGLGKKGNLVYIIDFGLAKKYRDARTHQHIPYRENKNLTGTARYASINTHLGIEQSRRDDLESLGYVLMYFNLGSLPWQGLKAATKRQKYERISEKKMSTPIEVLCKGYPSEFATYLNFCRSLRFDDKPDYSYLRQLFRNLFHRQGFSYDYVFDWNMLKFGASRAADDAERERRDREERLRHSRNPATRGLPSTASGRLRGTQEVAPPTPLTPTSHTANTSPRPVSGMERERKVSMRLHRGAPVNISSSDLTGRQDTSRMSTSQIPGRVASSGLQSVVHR
T1 sequence (P48729 whole entry): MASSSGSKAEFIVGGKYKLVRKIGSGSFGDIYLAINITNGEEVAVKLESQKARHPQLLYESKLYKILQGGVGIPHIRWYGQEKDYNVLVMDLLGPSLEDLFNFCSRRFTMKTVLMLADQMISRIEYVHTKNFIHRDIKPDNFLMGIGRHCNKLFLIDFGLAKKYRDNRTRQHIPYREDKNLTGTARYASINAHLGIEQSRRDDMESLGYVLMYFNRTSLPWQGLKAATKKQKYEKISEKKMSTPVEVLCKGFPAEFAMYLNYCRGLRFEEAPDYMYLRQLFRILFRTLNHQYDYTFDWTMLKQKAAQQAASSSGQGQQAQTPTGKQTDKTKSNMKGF

SMILES	IC50 [1] [nM]	IC50 [2] [nM]
O=C(Nc1cc(-c2[nH]c3cccnc3c2-c2cccc(F)n2)ccn1)C(CC(F)F)c1ccc(F)cc1 (single isomer, unassigned; (-)) [Example 26, (−)-4,4-difluoro-2-(4-fluorophenyl)-N-{4-[3-(6-fluoropyridin-2-yl)-1H-pyrrolo[3,2-b]pyridin-2-yl]pyridin-2-yl}butanamide]	15.8	50.7
O=C(Nc1cc(-c2[nH]c3cccnc3c2-c2ccccn2)ccn1)C(CCO)c1ccc(F)cc1 (stereo not drawn) [Example 104, 2-(4-fluorophenyl)-4-hydroxy-N-(4-(3-(pyridin-2-yl)-1H-pyrrolo[3,2-b]pyridin-2-yl)pyridin-2-yl)-butanamide]	6.29	16.3
O=C(Nc1cc(-c2[nH]c3c(OCC4CC4)ncnc3c2-c2ccccn2)ccn1)C(CC(F)F)c1ccc(F)cc1 (racemic) [Example 128, (2RS)—N-{4-[4-(cyclopropylmethoxy)-7-(pyridin-2-yl)-5H-pyrrolo[3,2-d]pyrimidin-6-yl]pyridin-2-yl}-4,4-difluoro-2-(4-fluorophenyl)butanamide]	47.4	8.51
O=C(Nc1cc(-c2[nH]c3cccnc3c2-c2ccccn2)ccn1)C(CC(F)F)c1ccc(F)cc1 (single isomer, unassigned; (+)) [Example 11, (+)-4,4-difluoro-2-(4-fluorophenyl)-N-{4-[3-(pyridin-2-yl)-1H-pyrrolo[3,2-b]pyridin-2-yl]pyridin-2-yl}butanamide]	5.35	2.57
Cc1cnc2c(-c3ccccn3)c(-c3ccnc(NC(=O)C(CC(F)F)c4ccc(F)cc4)c3)[nH]c2c1 (single isomer, unassigned) [Example 9, 4,4-difluoro-2-(4-fluorophenyl)-N-{4-[6-methyl-3-(pyridin-2-yl)-1H-pyrrolo[3,2-b]pyridin-2-yl]pyridin-2-yl}butanamide]	945	32.8
O=C(Nc1cc(-c2[nH]c3nccnc3c2-c2ccccn2)ccn1)C(CC(F)(F)F)c1ccc(F)cc1 (single isomer, unassigned) [Example 120, (2R or S)-4,4,4-trifluoro-2-(4-fluorophenyl)-N-{4-[7-(pyridin-2-yl)-5H-pyrrolo[2,3-b]pyrazin-6-yl]pyridin-2-yl}butanamide]	35.8	4.35
O=C(Nc1cc(-c2[nH]c3c(OCC(F)F)cc(F)nc3c2-c2ccccn2)ccn1)C(CC(F)F)c1ccc(F)cc1 (racemic) [Example 28, (2RS)—N-{4-[7-(2,2-difluoroethoxy)-5-fluoro-3-(pyridin-2-yl)-1H-pyrrolo[3,2-b]pyridin-2-yl]pyridin-2-yl}-4,4-difluoro-2-(4-fluorophenyl)butanamide]	3.95	4
Cc1ccc2[nH]c(-c3ccnc(NC(=O)C(CC(F)F)c4ccc(F)cc4)c3)c(-c3ccccn3)c2n1 (single isomer, unassigned) [Example 6, 4,4-difluoro-2-(4-fluorophenyl)-N-{4-[5-methyl-3-(pyridin-2-yl)-1H-pyrrolo[3,2-b]pyridin-2-yl]pyridin-2-yl}butanamide]	2990	89.7
COc1cnc2c(-c3ccccn3)c(-c3ccnc(NC(=O)C(CC(F)F)c4ccc(F)cc4)c3)[nH]c2n1 (stereo not drawn) [Example 101, 4,4-difluoro-2-(4-fluorophenyl)-N-{4-[3-methoxy-7-(pyridin-2-yl)-5H-pyrrolo[2,3-b]pyrazin-6-yl]pyridin-2-yl}butanamide]	4.82	9.17
O=C(Nc1cc(-c2[nH]c3c(CC4CC4)cc(F)nc3c2-c2ccccn2)ccn1)C(CC(F)F)c1ccc(F)cc1 (racemic) [Example 46, (2RS)—N-{4-[7-(cyclopropylmethyl)-5-fluoro-3-(pyridin-2-yl)-1H-pyrrolo[3,2-b]pyridin-2-yl]pyridin-2-yl}-4,4-difluoro-2-(4-fluorophenyl)butanamide]	23.2	19.2
O=C(Nc1cc(-c2[nH]c3c(OCC(F)(F)F)ncnc3c2-c2ccccn2)ccn1)C(CC(F)(F)F)c1ccc(F)cc1 (single isomer, unassigned) [Example 126, (2R or S)-4,4,4-trifluoro-2-(4-fluorophenyl)-N-{4-[7-(pyridin-2-yl)-4-(2,2,2-trifluoroethoxy)-5H-pyrrolo[3,2-d]pyrimidin-6-yl]pyridin-2-yl}butanamide]	20	7.84
O=C(Nc1cc(-c2[nH]c3cncnc3c2-c2ccccn2)ccn1)C(CC(F)F)c1ccc(F)cc1 (single isomer, unassigned; (+)) [Example 15, (+)-4,4-difluoro-2-(4-fluorophenyl)-N-{4-[7-(pyridin-2-yl)-5H-pyrrolo[3,2-d]pyrimidin-6-yl]pyridin-2-yl}butanamide]	30.9	3.06
O=C(Nc1cc(-c2[nH]c3c(CC4CC4)cc(F)nc3c2-c2ccccn2)ccn1)C(CC(F)F)c1ccc(F)cc1 (single isomer, unassigned) [Example 47, (2R or S)—N-{4-[7-(cyclopropylmethyl)-5-fluoro-3-(pyridin-2-yl)-1H-pyrrolo[3,2-b]pyridin-2-yl]pyridin-2-yl}-4,4-difluoro-2-(4-fluorophenyl)butanamide]	31.6	59
O=C(Nc1cc(-c2[nH]c3c(OC4CC4)cc(F)nc3c2-c2ccccn2)ccn1)C(CC(F)F)c1ccc(F)cc1 (racemic) [Example 42, (rac)-N-{4-[7-(cyclopropyloxy)-5-fluoro-3-(pyridin-2-yl)-1H-pyrrolo[3,2-b]pyridin-2-yl]pyridin-2-yl}-4,4-difluoro-2-(4-fluorophenyl)butanamide]	8.22	14.4
O=C(Nc1cc(-c2[nH]c3c(C4CCCO4)cc(F)nc3c2-c2ccccn2)ccn1)C(CC(F)F)c1ccc(F)cc1 (single isomer, unassigned) [Example 117, (2R or S)-4,4-difluoro-N-(4-{5-fluoro-7-[(2R or S)-oxolan-2-yl]-3-(pyridin-2-yl)-1H-pyrrolo[3,2-b]pyridin-2-yl}pyridin-2-yl)-2-(4-fluorophenyl)butanamide]	3570	28
O=C(Nc1cc(-c2[nH]c3ccc(F)nc3c2-c2ccc(F)cn2)ccn1)C(CC(F)F)c1ccc(F)cc1 (single isomer, unassigned; (+)) [Example 109, (+)-4,4-difluoro-N-{4-[5-fluoro-3-(5-fluoropyridin-2-yl)-1H-pyrrolo[3,2-b]pyridin-2-yl]pyridin-2-yl}-2-(4-fluorophenyl)butanamide]	3.14	3.41
O=C(Nc1cc(-c2[nH]c3cccnc3c2-c2ccccn2)ccn1)C(CC(F)F)c1ccc(F)cc1 (racemic) [Example 10, 4,4-difluoro-2-(4-fluorophenyl)-N-{4-[3-(pyridin-2-yl)-1H-pyrrolo[3,2-b]pyridin-2-yl]pyridin-2-yl}butanamide]	9.88	4.99
O=C(Nc1cc(-c2[nH]c3ccc(F)nc3c2-c2ccccn2)ccn1)[C@H](CC(F)F)c1ccc(F)cc1 (single isomer, unassigned) [Example 3]	849	20.1
Cc1ccc2[nH]c(-c3ccnc(NC(=O)C(CC(F)F)c4ccc(F)cc4)c3)c(-c3ccccn3)c2n1 (racemic) [Example 4, 4,4-difluoro-2-(4-fluorophenyl)-N-{4-[5-methyl-3-(pyridin-2-yl)-1H-pyrrolo[3,2-b]pyridin-2-yl]pyridin-2-yl}butanamide]	158	9.45
O=C(Nc1cc(-c2[nH]c3cc(F)cnc3c2-c2ccccn2)ccn1)C(CC(F)F)c1ccc(F)cc1 (racemic) [Example 16, 4,4-difluoro-2-(4-fluorophenyl)-N-{4-[6-fluoro-3-(pyridin-2-yl)-1H-pyrrolo[3,2-b]pyridin-2-yl]pyridin-2-yl}butanamide]	21.9	4.57
O=C(Nc1cc(-c2[nH]c3ccc(F)nc3c2-c2cc(F)ccn2)ccn1)C(CC(F)F)c1ccc(F)cc1 (racemic) [Example 95, (2RS)-4,4-difluoro-N-{4-[5-fluoro-3-(4-fluoropyridin-2-yl)-1H-pyrrolo[3,2-b]pyridin-2-yl]pyridin-2-yl}-2-(4-fluorophenyl)butanamide]	5.62	10.5
O=C(Nc1cc(-c2[nH]c3c(Cl)ccnc3c2-c2ccccn2)ccn1)C(CC(F)F)c1ccc(F)cc1 (racemic) [Example 49, (2RS)—N-{4-[7-chloro-3-(pyridin-2-yl)-1H-pyrrolo[3,2-b]pyridin-2-yl]pyridin-2-yl}-4,4-difluoro-2-(4-fluorophenyl)butanamide]	3.64	7.69
Cc1cnc2c(-c3ccccn3)c(-c3ccnc(NC(=O)C(CC(F)F)c4ccc(F)cc4)c3)[nH]c2c1 (racemic) [Example 7, 4,4-difluoro-2-(4-fluorophenyl)-N-{4-[6-methyl-3-(pyridin-2-yl)-1H-pyrrolo[3,2-b]pyridin-2-yl]pyridin-2-yl}butanamide]	8.12	4.13
CC(C)(O)c1cc(F)nc2c(-c3ccccn3)c(-c3ccnc(NC(=O)C(CC(F)F)c4ccc(F)cc4)c3)[nH]c12 (single isomer, unassigned) [Example 100, (2R or S)-4,4-difluoro-N-{4-[5-fluoro-7-(2-hydroxypropan-2-yl)-3-(pyridin-2-yl)-1H-pyrrolo[3,2-b]pyridin-2-yl]pyridin-2-yl}-2-(4-fluorophenyl)butanamide]	33.6	46.3
